We go through 28 compounds from patent publication US10189841B2, “Purinones as ubiquitin-specific protease 1 inhibitors” (Forma Therapeutics, Inc., priority 2015, dated 2019).

The structures appear in SMILES notation.

USP1 (construct USP1 (I-785, GG670, 671AA)/UAF1 (I-677)-Flag), sequence (O94782 whole entry G670A/G671A): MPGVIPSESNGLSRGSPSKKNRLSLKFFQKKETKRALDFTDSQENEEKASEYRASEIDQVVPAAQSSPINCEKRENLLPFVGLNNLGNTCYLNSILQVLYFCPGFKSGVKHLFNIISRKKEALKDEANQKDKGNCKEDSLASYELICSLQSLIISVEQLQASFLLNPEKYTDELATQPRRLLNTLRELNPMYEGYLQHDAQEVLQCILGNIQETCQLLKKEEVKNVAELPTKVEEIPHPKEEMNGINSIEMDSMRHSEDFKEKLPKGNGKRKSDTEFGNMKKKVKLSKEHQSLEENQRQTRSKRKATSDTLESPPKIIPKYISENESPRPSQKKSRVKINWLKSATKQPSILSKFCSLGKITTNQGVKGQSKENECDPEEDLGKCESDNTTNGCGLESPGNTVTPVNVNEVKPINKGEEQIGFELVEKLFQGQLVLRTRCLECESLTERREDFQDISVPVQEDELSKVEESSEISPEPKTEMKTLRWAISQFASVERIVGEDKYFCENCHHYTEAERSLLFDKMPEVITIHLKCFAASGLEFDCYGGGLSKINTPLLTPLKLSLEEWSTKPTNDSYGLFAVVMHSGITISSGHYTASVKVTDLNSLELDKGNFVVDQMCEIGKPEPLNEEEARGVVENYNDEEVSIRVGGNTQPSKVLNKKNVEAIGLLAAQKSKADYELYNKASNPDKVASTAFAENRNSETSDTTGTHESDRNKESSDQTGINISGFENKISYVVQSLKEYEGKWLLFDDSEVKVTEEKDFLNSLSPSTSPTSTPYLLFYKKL
USP1 (construct USP1 (I-785, GG670, 671AA)/UAF1 (I-677)-Flag), sequence (Q8TAF3 whole entry partner): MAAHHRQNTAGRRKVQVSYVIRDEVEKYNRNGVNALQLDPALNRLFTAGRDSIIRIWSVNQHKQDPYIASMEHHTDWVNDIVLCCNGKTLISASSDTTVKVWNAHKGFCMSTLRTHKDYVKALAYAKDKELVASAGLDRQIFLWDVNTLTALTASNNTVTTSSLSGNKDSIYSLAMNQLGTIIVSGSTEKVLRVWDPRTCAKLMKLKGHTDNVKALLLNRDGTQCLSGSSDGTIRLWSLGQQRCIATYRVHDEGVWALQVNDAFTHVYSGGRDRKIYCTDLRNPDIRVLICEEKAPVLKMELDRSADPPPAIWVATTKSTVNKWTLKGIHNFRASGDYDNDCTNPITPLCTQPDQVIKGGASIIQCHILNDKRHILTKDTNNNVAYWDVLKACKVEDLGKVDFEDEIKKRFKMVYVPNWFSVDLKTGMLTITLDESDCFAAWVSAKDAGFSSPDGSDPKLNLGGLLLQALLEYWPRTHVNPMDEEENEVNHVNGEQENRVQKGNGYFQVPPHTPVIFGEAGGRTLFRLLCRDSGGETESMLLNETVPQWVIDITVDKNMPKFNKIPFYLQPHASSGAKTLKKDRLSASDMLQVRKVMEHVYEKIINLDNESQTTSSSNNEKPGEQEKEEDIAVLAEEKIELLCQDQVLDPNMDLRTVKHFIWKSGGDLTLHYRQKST

This assay concerns the target USP1 (construct USP1 (I-785, GG670, 671AA)/UAF1 (I-677)-Flag) (Homo sapiens (Human), UniProt O94782, G670A/G671A). The experiment in a line: Ubiquitin-Rhodamine 110 assay for USP1 activity. The class given is biochemical. Particulars: USP1/UAF1 25 pM, Ub-Rh110 25 nM, 30 min preincubation. In short, it runs like this: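 Two formats with the USP1/UAF1 complex and 25 nM ubiquitin-rhodamine 110 in pH 8.0 Tris buffer with calcium, glutathione and detergent. Single-point screening used 10 µM, 100 pM enzyme and 45 min. Inhibition was set against no-enzyme and DMSO wells.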
For orientation: IC50 means the concentration needed to halve the response being measured. `CC(C)c1ccccc1-c1ncc2[nH]c(=O)n(Cc3ccc(C(=O)N4CCOCC4)cc3)c2n1` [Compound I-363, 2-(2-isopropylphenyl)-9-(4-(morpholine-4-carbonyl)benzyl)-7,9-dihydro-8H-purin-8-one] gave an IC50 of 50 to 200 nM.

`O=c1[nH]c2cnc(-c3cc(C(F)(F)F)ccc3C3CC3)nc2n1Cc1ccc(-n2cccn2)cc1` [Compound I-97, 9-(4-(1H-pyrazol-1-yl)benzyl)-2-(2-cyclopropyl-5-(trifluoromethyl)phenyl)-7,9-dihydro-8H-purin-8-one] yielded an IC50 of 200 to 2000 nM. Under `CCn1c(=O)n(Cc2ccc(-c3nc(C(F)(F)F)cn3C)cc2)c2nc(-c3cccnc3C(C)C)ncc21` [Compound I-507, 7-Ethyl-2-(2-isopropylpyridin-3-yl)-9-(4-(1-methyl-4-(trifluoromethyl)-1H-imidazol-2-yl)benzyl)-7,9-dihydro-8H-purin-8-one] stands under 50 nM; under `CC(C)c1ccccc1-c1ncc2[nH]c(=O)n(Cc3ccc(-c4ncc(F)n4C)cc3)c2n1` [Compound I-176, 9-(4-(5-fluoro-1-methyl-1H-imidazol-2-yl)benzyl)-2-(2-isopropylphenyl)-7,9-dihydro-8H-purin-8-one], under 50 nM; under `COCCOc1ncccc1-c1ncc2[nH]c(=O)n(Cc3ccc(-c4nc(C(F)(F)F)cn4C)cc3)c2n1` [Compound I-423, 2-(2-(2-methoxyethoxy)pyridin-3-yl)-9-(4-(1-methyl-4-(trifluoromethyl)-1H-imidazol-2-yl)benzyl)-7,9-dihydro-8H-purin-8-one], 50 to 200 nM. The compound `CC(C)c1cnccc1-c1ncc2c(n1)n(Cc1ccc(-n3cccn3)cc1)c(=O)n2C` [Compound I-516, 9-(4-(1H-Pyrazol-1-yl)benzyl)-2-(3-isopropylpyridin-4-yl)-7-methyl-7,9-dihydro-8H-purin-8-one] had an IC50 of over 2000 nM. Under `CC(C)c1ccccc1-c1ncc2c(n1)n(Cc1ccc(N(C)S(C)(=O)=O)cc1)c(=O)n2C` [Compound I-459, N-(4-((2-(2-isopropylphenyl)-7-methyl-8-oxo-7,8-dihydro-9H-purin-9-yl)methyl)phenyl)-N-methylmethanesulfonamide] stands 200 to 2000 nM; under `CC(C)c1ccccc1-c1ncc2c(n1)n(Cc1ccc(-c3ccnn3C(C)C)cc1)c(=O)n2C` [Compound I-284, 9-(4-(1-isopropyl-1H-pyrazol-5-yl)benzyl)-2-(2-isopropylphenyl)-7-methyl-7,9-dihydro-8H-purin-8-one], 200 to 2000 nM; under `CC(C)c1ccccc1-c1ncc2[nH]c(=O)n(Cc3ccc(-c4nccn4C)cc3)c2n1` [Compound I-160, 2-(2-isopropylphenyl)-9-(4-(1-methyl-1H-imidazol-2-yl)benzyl)-7,9-dihydro-8H-purin-8-one], under 50 nM. Under `CC(C)C(=O)N1CCC(F)(Cn2c(=O)[nH]c3cnc(-c4ccccc4C(C)C)nc32)CC1` [Compound I-475, 9-((4-fluoro-1-isobutyrylpiperidin-4-yl)methyl)-2-(2-isopropylphenyl)-7,9-dihydro-8H-purin-8-one] stands over 2000 nM. In the case of `Cn1cc(C(F)(F)F)nc1-c1ccc(Cn2c(=O)[nH]c3cnc(-c4cccnc4C(F)F)nc32)cc1` [Compound I-64, 2-(2-(difluoromethyl)pyridin-3-yl)-9-(4-(1-methyl-4-(trifluoromethyl)-1H-imidazol-2-yl)benzyl)-7,9-dihydro-8H-purin-8-one], the IC50 fell in the range of 50 to 200 nM. With `CC(C)c1c(F)cccc1-c1ncc2[nH]c(=O)n(Cc3ccc(-n4ncc5c4CNC5)cc3)c2n1` [Compound I-103, 9-(4-(5,6-dihydropyrrolo[3,4-c]pyrazol-1(4H)-yl)benzyl)-2-(3-fluoro-2-isopropylphenyl)-7,9-dihydro-8H-purin-8-one], the IC50 is 50 to 200 nM.

As for `CC(C)c1ncccc1-c1ncc2[nH]c(=O)n(Cc3ccc(-c4nc(C(F)(F)F)cn4C)cc3F)c2n1` [Compound I-84, 9-(2-fluoro-4-(1-methyl-4-(trifluoromethyl)-1H-imidazol-2-yl)benzyl)-2-(2-isopropylpyridin-3-yl)-7,9-dihydro-8H-purin-8-one], the IC50 was under 50 nM. Under `CC(C)c1ccccc1-c1ncc2[nH]c(=O)n(Cc3ccc(-c4ncccn4)cc3)c2n1` [Compound I-255, 2-(2-isopropylphenyl)-9-(4-(pyrimidin-2-yl)benzyl)-7,9-dihydro-8H-purin-8-one] stands 50 to 200 nM.

Compound `CC(C)c1ccccc1-c1ncc2c(n1)n(Cc1ccc(OCCN(C)C)cc1)c(=O)n2C` [Compound I-233, 9-(4-(2-(dimethylamino)ethoxy)benzyl)-2-(2-isopropylphenyl)-7-methyl-7,9-dihydro-8H-purin-8-one] registered an IC50 of 50 to 200 nM.

Compound `CC(C)c1ccccc1-c1ncc2[nH]c(=O)n(C3CCC34CN(S(=O)(=O)C(C)C)C4)c2n1` (stereo not shown) [Compound I-452, 2-(2-isopropylphenyl)-9-(2-(isopropylsulfonyl)-2-azaspiro[3.3]heptan-5-yl)-7,9-dihydro-8H-purin-8-one] displayed an IC50 of 200 to 2000 nM. The result for `CC(C)c1ccccc1-c1ncc2[nH]c(=O)n(Cc3ccc(C(=O)N4CCC(F)(F)CC4)cc3)c2n1` [Compound I-388, 9-(4-(4,4-difluoropiperidine-1-carbonyl)benzyl)-2-(2-isopropylphenyl)-7,9-dihydro-8H-purin-8-one] reads 200 to 2000 nM; that for `CC(C)c1ncccc1-c1ncc2[nH]c(=O)n([C@H](C)c3ccc(-n4cccn4)cc3)c2n1` [Compound I-14, (R)-9-(1-(4-(1H-pyrazol-1-yl)phenyl)ethyl)-2-(2-isopropylpyridin-3-yl)-7,9-dihydro-8H-purin-8-one], 50 to 200 nM; that for `Cc1nc(-c2ccc(Cn3c(=O)[nH]c4cnc(-c5ccccc5C(C)C)nc43)cc2)c(C)o1` [Compound I-200, 9-(4-(2,5-dimethyloxazol-4-yl)benzyl)-2-(2-isopropylphenyl)-7,9-dihydro-8H-purin-8-one], under 50 nM. `Cc1nc(-c2ccc(Cn3c(=O)n(C)c4cnc(-c5ccccc5C(C)C)nc43)cc2)c(C)s1` [Compound I-304, 9-(4-(2,5-dimethylthiazol-4-yl)benzyl)-2-(2-isopropylphenyl)-7-methyl-7,9-dihydro-8H-purin-8-one] registered an IC50 of under 50 nM. The result for `CC(C)c1ccccc1-c1ncc2[nH]c(=O)n(Cc3ccc(-n4ccc(C5CCN(C)C5)n4)cc3)c2n1` (stereo not shown) [Compound I-440, 2-(2-isopropylphenyl)-9-(4-(3-(1-methylpyrrolidin-3-yl)-1H-pyrazol-1-yl)benzyl)-7,9-dihydro-8H-purin-8-one] reads 200 to 2000 nM; that for `CC(C)c1ncccc1-c1ncc2c(n1)n(C1(c3ccc(-c4nc(C(F)(F)F)cn4C)cc3)CC1)c(=O)n2C` [Compound I-108, 2-(2-isopropylpyridin-3-yl)-7-methyl-9-(1-(4-(1-methyl-4-(trifluoromethyl)-1H-imidazol-2-yl)phenyl)cyclopropyl)-7,9-dihydro-8H-purin-8-one], under 50 nM; that for `CC(C)c1ccccc1-c1ncc2[nH]c(=O)n(Cc3ccc(C(=O)N(C)CCO)cc3)c2n1` [Compound I-376, N-(2-hydroxyethyl)-4-((2-(2-isopropylphenyl)-8-oxo-7,8-dihydro-9H-purin-9-yl)methyl)-N-methylbenzamide], 200 to 2000 nM. For the compound `CC(C)c1ccccc1-c1ncc2[nH]c(=O)n(Cc3ccc(-c4nnn[nH]4)cc3)c2n1` [Compound I-513, 9-(4-(1H-tetrazol-5-yl)benzyl)-2-(2-isopropylphenyl)-7,9-dihydro-8H-purin-8-one], the IC50 is over 2000 nM. Under `CC(C)c1ccccc1-c1ncc2c(n1)n(Cc1ccc(-c3nc(C(F)(F)F)cn3CCO)cc1)c(=O)n2C` [Compound I-106, 9-(4-(1-(2-Hydroxyethyl)-4-(trifluoromethyl)-1H-imidazol-2-yl)benzyl)-2-(2-isopropylphenyl)-7-methyl-7,9-dihydro-8H-purin-8-one] stands under 50 nM. Under `CC(C)c1ccccc1-c1ncc2c(n1)n(Cc1cccc(OCCN(C)C)c1)c(=O)n2C` [Compound I-244, 9-(3-(2-(dimethylamino)ethoxy)benzyl)-2-(2-isopropylphenyl)-7-methyl-7,9-dihydro-8H-purin-8-one] stands over 2000 nM; under `Cn1cc(C(F)(F)F)nc1-c1ccc(Cn2c(=O)[nH]c3cnc(-c4cccc5c4OC(F)(F)O5)nc32)cc1` [Compound I-36, 2-(2,2-difluorobenzo[d][1,3]dioxol-4-yl)-9-(4-(1-methyl-4-(trifluoromethyl)-1H-imidazol-2-yl)benzyl)-7,9-dihydro-8H-purin-8-one], 200 to 2000 nM; under `CC(C)c1ccccc1-c1ncc2[nH]c(=O)n(Cc3ccc(C(=O)NC4COC4)cc3)c2n1` [Compound I-381, 4-((2-(2-isopropylphenyl)-8-oxo-7,8-dihydro-9H-purin-9-yl)methyl)-N-(oxetan-3-yl)benzamide], 200 to 2000 nM.
